Measured values taken from patent US12145925B2, “Phthalazine derivatives as inhibitors of PARP1, PARP2, and/or tubulin useful for the treatment of cancer” (THE REGENTS OF THE UNIVERSITY OF CALIFORNIA, priority 2016, dated 2024).

Target: T1, PARP2 (Homo sapiens, UniProt Q9UGN5)
T1 construct: purchased BPS Bioscience 80552
Experiment: PARP2 enzymatic activity inhibition (BPS Bioscience PARP2 Assay Kit)
Type: biochemical
Conditions: incorporation of biotinylated poly(ADP-ribose) onto histone proteins
Experimental: The half maximal inhibitory concentration (IC50) with respect to PARP2 inhibition was determined for each test compound by using BPS Bioscience PARP2 Assay Kit, according to the manufacturer's protocol (Cat #80552, San Diego, CA). This assay measures the incorporation of biotinylated poly(ADP-ribose) onto histone proteins in a 96-well strip well format. This assay is ideal for the determination of IC50 values of known or suspected PARP inhibitors. Briefly, stock solutions of each test compound were prepared in DMSO. Histone strip wells were incubated for 30 minutes at room temperature with 50 μl/well of 1×PARP Buffer to rehydrate the histones. Serial dilutions of either test compound were added to appropriate wells. Diluted PARP enzyme (0.5 Unit/well) was then added to the wells containing compounds, and incubated for 10 minutes at room temperature. […] Three types of control wells were also analyzed; i. A negative control without PARP was prepared to determine background absorbance. ii. […] The reactions were then stopped by adding 50 μl per well of 0.2M HCl or 5% Phosphoric Acid and read the absorbance at 450 nm. The IC50 values were determined by performing non-linear regression analysis fitting velocities and the logarithm of inhibitor concentrations to a sigmoidal dose response with a variable slope model using the GraphPad Prism 6.0 software. […]

T1 sequence (Q9UGN5 whole entry): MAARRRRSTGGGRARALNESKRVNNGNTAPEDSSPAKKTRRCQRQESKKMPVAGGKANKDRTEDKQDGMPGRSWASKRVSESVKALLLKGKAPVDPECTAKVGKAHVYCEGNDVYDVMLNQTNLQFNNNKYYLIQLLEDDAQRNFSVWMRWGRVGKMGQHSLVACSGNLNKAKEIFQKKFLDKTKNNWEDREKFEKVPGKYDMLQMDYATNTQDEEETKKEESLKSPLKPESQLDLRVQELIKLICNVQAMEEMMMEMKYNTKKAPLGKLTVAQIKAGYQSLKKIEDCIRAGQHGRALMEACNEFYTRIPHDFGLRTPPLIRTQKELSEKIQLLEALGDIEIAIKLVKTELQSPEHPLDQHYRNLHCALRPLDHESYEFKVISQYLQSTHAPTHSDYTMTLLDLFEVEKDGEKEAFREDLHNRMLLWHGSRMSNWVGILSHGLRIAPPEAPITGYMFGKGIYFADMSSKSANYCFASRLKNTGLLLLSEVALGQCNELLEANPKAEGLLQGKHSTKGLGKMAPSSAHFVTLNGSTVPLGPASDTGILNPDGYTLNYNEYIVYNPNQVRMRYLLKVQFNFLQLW

IC50: 0.05 nM
Structure (SMILES): COC(=O)Nc1nc2cc(-c3cc(Cc4n[nH]c(=O)c5ccccc45)ccc3F)ccc2[nH]1 [Ex 1.1, methyl (5-(2-fluoro-5-((4-oxo-3,4-dihydrophthalazin-1-yl)methyl)phenyl)-1H-benzimidazol-2-yl)carbamate]
